What all share (test): NCI tumour cell line growth inhibition, 48 h
In assay [1] the test system is HS 578T breast.
Assay [2] has as its system MDA-MB-435.
Assay [3] has as its system TK-10 renal.
Assay [4] concerns SF-268 CNS.
Assay [5] deals with HOP-18 NSCLC.
Assay [6] relates to DMS 114 small cell lung.
In assay [7] the test system is 786-0 renal.
Assay [8] concerns P388 leukemia.
Assay [9] concerns RXF-631 renal.
Assay [10] relates to P388/ADR leukemia.
For assay [11], the system named is LXFL 529 NSCLC.

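Growth conditions: 96-well plates. Treatment: test compound, 48 hours, 5 concentrations. Analysis: linear interpolation between bracketing concentrations; unreached endpoints set to highest concentration. At the GI50, growth is halved. TGI denotes the concentration required for complete inhibition of growth.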

As to `O=C(O)c1cc([N+](=O)[O-])cc2c(=O)c3cnccc3[nH]c12`, the TGI in assay [1] and in assay [2] was above 100 µM in each case.

For `CCCCCCCCCCCCCCCCCCOc1ccccc1CC(=O)OCC[N+]1(C)CCCCC1`, in assay [1], the GI50 was 2.32 µM and the TGI was 6.53 µM. Moreover, in [2], the GI50 is 1.7 µM and the TGI was found to be 3.2 µM.

Take `Nc1ncnc2c1ncn2C=C=CCO`: the TGI in [1], in [3] and in assay [2] was above 100 µM throughout.

Regarding `CN1CCc2[nH]c3ccccc3c2C1`, the TGI in assay [4], in assay [5] and in assay [6] was above 100 µM in each case.

In the case of `C[C@]12C=CC(=O)C=C1CC[C@@H]1[C@@H]2CC[C@]2(C)OC(=O)CC[C@@H]12`, the TGI in assay [4] was above 500 µM; in assay [1], above 500 µM; in assay [7], above 500 µM; in assay [3], above 500 µM; in assay [8], above 486 µM; in assay [5], 232 µM. Moreover, the TGI in assay [2] is above 500 µM; in assay [9], above 500 µM; in assay [10] it was 449 µM; in assay [6], above 500 µM; in [11], above 500 µM.

In the case of `Nc1ncnc2nc[nH]c12`, the GI50 in [4] is 143 µM. For the same compound, the TGI in assay [4], in assay [8], in [5], in assay [10] and in assay [6] was above 250 µM in each case.

Consider `CN1CCOC(c2ccc(Cl)cc2)O1` (stereo unspecified), for which the TGI in assay [4], in assay [3] and in assay [2] was above 100 µM throughout.

Regarding `CCOc1ccc(NC(=O)C(=O)CC(=O)c2sc(NNC(C)=O)nc2C)cc1`, the TGI in assay [4], in [3], in assay [9] and in assay [11] was above 100 µM in each case.

These data come from PubChem BioAssay (NCI).
